Measured values from patent US5843959A, “Methods and bicyclic polyamine compositions for the treatment of inflammation” (University of Florida Research Foundation, Inc., priority 1997, dated 1998).
“Also recorded” adds a separate entry of the source.

Columns and labels:
[1] = tested on: BALB/c responder splenocytes with CBA/J stimulator cells; experiment: Mixed lymphocyte response (MLR); format: cell-based, mouse (BALB/c; details: MLR, 5 days
Description: (§1) This study examined the potential immunomodulatory activities of PIP[4,4,4] on mouse spleen cells using in vitro techniques. The effect of the compound on the ability of murine splenocytes to respond to the […] mitogen concanavalin A (Con A) and the B cell mitogen lipopolysaccharide (LPS) was studied. […] In addition, the compound was tested for its effect on the mixed lymphocyte response (MLR). The MLR is an in vitro manifestation of cell-mediated immunity in which T cells respond to differences in major histocompatibility complex (MHC) class II molecules (Ia antigens) expressed on foreign or allogeneic leukocytes (primarily B cells and […]/monocytes).
(§2) a. Preparation of cells--Under sterile conditions, spleens were removed from BALB/c (H-2^d) and CBA/J (H-2^k) mice. BALB/c splenocytes were used as responder cells in the mitogen assays and the MLR assays, whereas CBA/J cells were used as stimulator cells in the MLR assays. […] Cells were exposed to various concentrations of the test compounds for the entire culture period. The initial dilutions in medium were filter sterilized to maintain aseptic conditions.
c. […] Thus, a BALB/c (2×10^5 cells/well) anti-CBA/J (8×10^5 cells/well) MLR combination was used in these studies. CBA/J spleen cells were irradiated with 2,000 R to prevent them from responding to BALB/c MHC antigens. Triplicate wells were set up in 96-well flat-bottom microtiter plates for all treated cultures and positive controls (100% of control) were performed in replicates of nine wells. Plates were incubated at 37° C. in a humidified CO2 incubator for 5 days, pulsed with 1 μCI […]/well for 6-16 hours, harvested and counted in a liquid scintillation counter. All data were processed using Lotus 1-2-3 and SigmaPlot software.

[2] = tested on: BALB/c splenocytes stimulated with LPS; experiment: Mitogen response to LPS (B cell proliferation); format: cell-based, mouse (BALB/c)
Description: as §1, §2
(§3) b. Mitogen assays--Con A and LPS were obtained from Sigma Chemical Co. (St. Louis, Mo., U.S.A.). 2×10^5 BALB/c splenocytes were added per well. […] Triplicate wells were set up in 96-well flat-bottom microtiter plates for all treated cultures and positive controls (100% of control) were performed in replicates of nine wells. Plates were incubated at 37° C. in a humidified CO2 incubator for 3 days, pulsed with 1 μCi ^3 H-TdR/well for 6-16 hours, harvested and counted in a liquid scintillation counter. All data were processed using Lotus 1-2-3 and SigmaPlot software.

[3] = tested on: carrageenan-induced edema in rat paw; experiment: Inhibition of carrageenan-induced paw edema in rats
[4] = tested on: BALB/c splenocytes stimulated with Con A; experiment: Mitogen response to Con A (T cell proliferation); format: cell-based, mouse (BALB/c)
Description: as §1, §2, §3

Structure (SMILES): C(CCNCC1CCNCC1)CNCC1CCNCC1 [PIP[4,4,4], N,N'-Bis(4-piperidinylmethyl)-1,4-butanediamine]
- Proliferative response (CPM), Mean ± SD ([1]; drug 10.000 μm): 568531 ± 6200 CPM
- Proliferative response (CPM), Mean ± SD ([1]; drug 100.000 μm): 29717 ± 3146 CPM
- Proliferative response (CPM), Mean ± SD ([1]; drug 1000.000 μm): 22583 ± 2490 CPM
- activity at 0.01 µM ([1]; Mus musculus, Splenocyte, 120 h, drug 0.010 μm, read-out: % Control): 79%
- activity at 0.1 µM ([1]; Mus musculus, Splenocyte, 120 h, drug 0.100 μm, read-out: % Control): 99%
- activity at 1 µM ([1]; Mus musculus, Splenocyte, 120 h, drug 1.000 μm, read-out: % Control): 131%
- activity at 10 µM ([1]; Mus musculus, Splenocyte, 120 h, drug 10.000 μm, read-out: % Control): 136%
- activity at 100 µM ([1]; Mus musculus, Splenocyte, 120 h, drug 100.000 μm, read-out: % Control): 71%
- activity at 1000 µM ([1]; Mus musculus, Splenocyte, 120 h, drug 1000.000 μm, read-out: % Control): 54%
- Proliferative response (CPM), Mean ± SD ([2]; LPS 25 μg/ml, drug 0.010 μm): 175516 ± 10793 CPM
- Proliferative response (CPM), Mean ± SD ([2]; LPS 25 μg/ml, drug 0.100 μm): 174197 ± 23886 CPM
- Proliferative response (CPM), Mean ± SD ([2]; LPS 25 μg/ml, drug 1.000 μm): 192921 ± 32628 CPM
- Proliferative response (CPM), Mean ± SD ([2]; LPS 25 μg/ml, drug 10.000 μm): 187500 ± 8089 CPM
- Proliferative response (CPM), Mean ± SD ([2]; LPS 25 μg/ml, drug 100.000 μm): 117804 ± 14014 CPM
- Proliferative response (CPM), Mean ± SD ([2]; LPS 25 μg/ml, drug 1000.000 μm): 83427 ± 18281 CPM
- activity at 0.01 µM ([2]; Mus musculus, Splenocyte, 72 h, LPS 25 μg/ml, drug 0.010 μm, read-out: % Control): 100%
- activity at 0.1 µM ([2]; Mus musculus, Splenocyte, 72 h, LPS 25 μg/ml, drug 0.100 μm, read-out: % Control): 99%
- activity at 1 µM ([2]; Mus musculus, Splenocyte, 72 h, LPS 25 μg/ml, drug 1.000 μm, read-out: % Control): 110%
- activity at 10 µM ([2]; Mus musculus, Splenocyte, 72 h, LPS 25 μg/ml, drug 10.000 μm, read-out: % Control): 106%
- activity at 100 µM ([2]; Mus musculus, Splenocyte, 72 h, LPS 25 μg/ml, drug 100.000 μm, read-out: % Control): 67%
- activity at 1000 µM ([2]; Mus musculus, Splenocyte, 72 h, LPS 25 μg/ml, drug 1000.000 μm, read-out: % Control): 47%
- Effect on LPS response (in words) ([2]; suppression in the 1-100 μm range): some inhibition of the LPS response; also recorded: some dose-dependent suppression
- Acute anti-inflammatory activity (in words) ([3]; 30 mg/kg intraperitoneally): significantly reducing the extent of carrageenan-induced paw edema
- % Edema inhibition ([3]; vs vehicle control, aspirin 150 mg/kg p.o., hydrocortisone 25 mg/kg p.o., PIP[4,4,4] 30 mg/kg i.p., >30% significant): 58%
- Effect on Con A response (in words) [4]: no inhibitory effect on the Con A response
- Proliferative response (CPM), Mean ± SD ([4]; Con A 3 μg/ml, drug 0.010 μm): 343389 ± 21927 CPM
- Proliferative response (CPM), Mean ± SD ([4]; Con A 3 μg/ml, drug 0.100 μm): 333419 ± 31211 CPM
- Proliferative response (CPM), Mean ± SD ([4]; Con A 3 μg/ml, drug 1.000 μm): 340397 ± 25586 CPM
- Proliferative response (CPM), Mean ± SD ([4]; Con A 3 μg/ml, drug 10.000 μm): 365771 ± 2876 CPM
- Proliferative response (CPM), Mean ± SD ([4]; Con A 3 μg/ml, drug 100.000 μm): 313504 ± 279 CPM
- Proliferative response (CPM), Mean ± SD ([4]; Con A 3 μg/ml, drug 1000.000 μm): 273418 ± 14954 CPM
- activity at 0.01 µM ([4]; Mus musculus, Splenocyte, 72 h, Con A 3 μg/ml, drug 0.010 μm, read-out: % Control): 173%
- activity at 0.1 µM ([4]; Mus musculus, Splenocyte, 72 h, Con A 3 μg/ml, drug 0.100 μm, read-out: % Control): 168%
- activity at 1 µM ([4]; Mus musculus, Splenocyte, 72 h, Con A 3 μg/ml, drug 1.000 μm, read-out: % Control): 172%
- activity at 10 µM ([4]; Mus musculus, Splenocyte, 72 h, Con A 3 μg/ml, drug 10.000 μm, read-out: % Control): 185%
- activity at 100 µM ([4]; Mus musculus, Splenocyte, 72 h, Con A 3 μg/ml, drug 100.000 μm, read-out: % Control): 158%
- activity at 1000 µM ([4]; Mus musculus, Splenocyte, 72 h, Con A 3 μg/ml, drug 1000.000 μm, read-out: % Control): 138%
